Measured values: PubChem BioAssay (NCI)
“And” between values parts separate entries of the source, which are not always exact repeats. Equal entries are not always repeated.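 Tested at 5 concentrations; 48 h exposure; 96-well plates; endpoints linearly interpolated, else capped at highest concentration. GI50: concentration for 50% inhibition of growth. TGI is the concentration that stops growth completely.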

Key:
Assay in all cases: inhibition of tumour cell growth, NCI panel, 48 h
HL-60(TB) leukemia = tested on: HL-60(TB) leukemia
NCI-H226 lung = tested on: NCI-H226 lung
SK-MEL-2 melanoma = tested on: SK-MEL-2 melanoma
LOX IMVI melanoma = tested on: LOX IMVI melanoma
OVCAR-3 ovarian = tested on: OVCAR-3 ovarian
SK-MEL-5 melanoma = tested on: SK-MEL-5 melanoma
HCT-15 colon = tested on: HCT-15 colon
T-47D breast = tested on: T-47D breast
A498 renal = tested on: A498 renal
HS 578T breast = tested on: HS 578T breast
OVCAR-5 ovarian = tested on: OVCAR-5 ovarian
ACHN renal = tested on: ACHN renal
SR leukemia = tested on: SR leukemia
BT-549 breast = tested on: BT-549 breast
CAKI-1 renal = tested on: CAKI-1 renal
UO-31 renal = tested on: UO-31 renal
SK-MEL-28 melanoma = tested on: SK-MEL-28 melanoma
SF-268 CNS = tested on: SF-268 CNS
EKVX NSCLC = tested on: EKVX NSCLC
UACC-62 melanoma = tested on: UACC-62 melanoma
MDA-MB-231 breast = tested on: MDA-MB-231 breast
HOP-62 NSCLC = tested on: HOP-62 NSCLC
UACC-257 melanoma = tested on: UACC-257 melanoma
RXF 393 renal = tested on: RXF 393 renal
OVCAR-4 ovarian = tested on: OVCAR-4 ovarian
K-562 leukemia = tested on: K-562 leukemia
SK-OV-3 ovarian = tested on: SK-OV-3 ovarian
NCI/ADR-RES ovarian = tested on: NCI/ADR-RES ovarian
SNB-75 CNS = tested on: SNB-75 CNS
CCRF-CEM leukemia = tested on: CCRF-CEM leukemia
TK-10 renal = tested on: TK-10 renal
786-0 renal = tested on: 786-0 renal
A549 NSCLC = tested on: A549 NSCLC
MOLT-4 leukemia = tested on: MOLT-4 leukemia
NCI-H23 lung = tested on: NCI-H23 lung
SF-295 CNS = tested on: SF-295 CNS
SF-539 CNS = tested on: SF-539 CNS
M14 melanoma = tested on: M14 melanoma
SN12C renal = tested on: SN12C renal
SNB-19 CNS = tested on: SNB-19 CNS
MDA-MB-435 = tested on: MDA-MB-435

In the case of `CCCCCCCCCCCCCCCC[N+](C)(C)CCN(Cc1ccc(OC)cc1)c1ncccn1`, the GI50 (HL-60(TB) leukemia) is reported as 1400 nM and 661 nM, the TGI (HL-60(TB) leukemia) is reported as 3990 nM and 4790 nM and the GI50 (NCI-H226 lung) is reported as 2770 nM. The TGI (NCI-H226 lung) was 14000 nM, the GI50 (SK-MEL-2 melanoma) was 2880 nM and the TGI (SK-MEL-2 melanoma) was 6950 nM. It also gave a GI50 (LOX IMVI melanoma) of 1170 nM, a TGI (LOX IMVI melanoma) of 3330 nM and a GI50 (OVCAR-3 ovarian) of 1140 nM. The TGI (OVCAR-3 ovarian) was 3320 nM, the GI50 (SK-MEL-5 melanoma) was 2680 nM and the TGI (SK-MEL-5 melanoma) was 8770 nM. For the same molecule, the GI50 (HCT-15 colon) was 18600 nM, the TGI (HCT-15 colon) was 60100 nM and the GI50 (T-47D breast) was 1280 nM. It also gave a TGI (T-47D breast) of 2980 nM, a GI50 (A498 renal) of 1690 nM and a TGI (A498 renal) of 5210 nM. The GI50 (HS 578T breast) was 1760 nM, the TGI (HS 578T breast) was 4400 nM and the GI50 (OVCAR-5 ovarian) was 1910 nM. The TGI (OVCAR-5 ovarian) was 4620 nM, the GI50 (ACHN renal) was 8540 nM and the TGI (ACHN renal) was 32900 nM. It also gave a GI50 (SR leukemia) of 1250 nM, a TGI (SR leukemia) of over 100000 nM and a GI50 (BT-549 breast) of 2430 nM. For the same molecule, the TGI (BT-549 breast) was 5830 nM, the GI50 (CAKI-1 renal) was 8140 nM and the TGI (CAKI-1 renal) was 34000 nM. The GI50 (UO-31 renal) was 5650 nM, the TGI (UO-31 renal) was 52900 nM and the GI50 (SK-MEL-28 melanoma) was 2100 nM. For the same molecule, the TGI (SK-MEL-28 melanoma) was 4500 nM, the GI50 (SF-268 CNS) was 1390 nM and the TGI (SF-268 CNS) was 3740 nM. It also gave a GI50 (EKVX NSCLC) of 1890 nM, a TGI (EKVX NSCLC) of 7520 nM and a GI50 (UACC-62 melanoma) of 1750 nM. It also gave a TGI (UACC-62 melanoma) of 4370 nM, a GI50 (MDA-MB-231 breast) of 2000 nM and a TGI (MDA-MB-231 breast) of 4940 nM. The GI50 (HOP-62 NSCLC) was 1540 nM, the TGI (HOP-62 NSCLC) was 2950 nM and the GI50 (UACC-257 melanoma) was 5650 nM. The TGI (UACC-257 melanoma) was 39800 nM, the GI50 (RXF 393 renal) was 1520 nM and 821 nM and the TGI (RXF 393 renal) was 3490 nM and 2430 nM. The GI50 (OVCAR-4 ovarian) was 1850 nM, the TGI (OVCAR-4 ovarian) was 4880 nM and the GI50 (K-562 leukemia) was 838 nM. For the same molecule, the TGI (K-562 leukemia) was over 100000 nM, the GI50 (SK-OV-3 ovarian) was 2240 nM and the TGI (SK-OV-3 ovarian) was 7240 nM. The GI50 (NCI/ADR-RES ovarian) was 18700 nM and 3940 nM, the TGI (NCI/ADR-RES ovarian) was 64000 nM and > 100000 nM and the GI50 (SNB-75 CNS) was 2280 nM. For the same molecule, the TGI (SNB-75 CNS) was 6530 nM.

For `N#Cc1c2cccnc2c2nnc3cc(Cl)c(Cl)cc3n12`, the GI50 (SK-MEL-2 melanoma) was 3330 nM, the TGI (SK-MEL-2 melanoma) was over 100000 nM and the GI50 (OVCAR-3 ovarian) was 1830 nM. It also gave a TGI (OVCAR-3 ovarian) of 3270 nM, a GI50 (SK-MEL-5 melanoma) of over 100000 nM and a TGI (SK-MEL-5 melanoma) of over 100000 nM. It also gave a GI50 (CCRF-CEM leukemia) of 3060 nM, a TGI (CCRF-CEM leukemia) of over 100000 nM and a GI50 (TK-10 renal) of over 100000 nM. For the same molecule, the TGI (TK-10 renal) was over 100000 nM, the GI50 (786-0 renal) was over 100000 nM and the TGI (786-0 renal) was over 100000 nM. It also gave a GI50 (T-47D breast) of 1600 nM, a TGI (T-47D breast) of 4000 nM and a GI50 (OVCAR-5 ovarian) of over 100000 nM. It also gave a TGI (OVCAR-5 ovarian) of over 100000 nM, a GI50 (SR leukemia) of 923 nM and a TGI (SR leukemia) of 7510 nM. The GI50 (A549 NSCLC) was over 100000 nM, the TGI (A549 NSCLC) was over 100000 nM and the GI50 (SF-268 CNS) was 2260 nM. It also gave a TGI (SF-268 CNS) of 5250 nM, a GI50 (MOLT-4 leukemia) of 3590 nM and a TGI (MOLT-4 leukemia) of over 100000 nM. The GI50 (NCI-H23 lung) was 2810 nM, the TGI (NCI-H23 lung) was over 100000 nM and the GI50 (K-562 leukemia) was 3520 nM. For the same molecule, the TGI (K-562 leukemia) was over 100000 nM, the GI50 (SK-OV-3 ovarian) was over 100000 nM and the TGI (SK-OV-3 ovarian) was over 100000 nM. The GI50 (SNB-75 CNS) was 1540 nM and the TGI (SNB-75 CNS) was 3960 nM.

`C=CC(=O)N1CCN(c2nc(OC[C@@H]3CCCN3C)nc3c2CCN(c2cccc4cccc(C)c24)C3)C[C@@H]1CC#N` showed a GI50 (SK-MEL-5 melanoma) of 1680 nM, a TGI (SK-MEL-5 melanoma) of 3060 nM and a GI50 (CCRF-CEM leukemia) of 475 nM. For the same molecule, the TGI (CCRF-CEM leukemia) was 2780 nM, the GI50 (HCT-15 colon) was 1450 nM and the TGI (HCT-15 colon) was 2920 nM. For the same molecule, the GI50 (HS 578T breast) was 1710 nM, the TGI (HS 578T breast) was 4530 nM and the GI50 (OVCAR-5 ovarian) was 1580 nM. The TGI (OVCAR-5 ovarian) was 3260 nM, the GI50 (ACHN renal) was 953 nM and the TGI (ACHN renal) was 2140 nM. The GI50 (BT-549 breast) was 1580 nM, the TGI (BT-549 breast) was 3080 nM and the GI50 (CAKI-1 renal) was 1180 nM. For the same molecule, the TGI (CAKI-1 renal) was 2460 nM, the GI50 (UO-31 renal) was 1280 nM and the TGI (UO-31 renal) was 2540 nM. It also gave a GI50 (SK-MEL-28 melanoma) of 1710 nM, a TGI (SK-MEL-28 melanoma) of 3090 nM and a GI50 (SF-295 CNS) of 1530 nM. For the same molecule, the TGI (SF-295 CNS) was 2900 nM, the GI50 (MDA-MB-231 breast) was 1390 nM and the TGI (MDA-MB-231 breast) was 2780 nM. For the same molecule, the GI50 (HOP-62 NSCLC) was under 10 nM, the TGI (HOP-62 NSCLC) was 1640 nM and the GI50 (SF-539 CNS) was 1630 nM. The TGI (SF-539 CNS) was 3040 nM, the GI50 (UACC-257 melanoma) was 1790 nM and the TGI (UACC-257 melanoma) was 3740 nM. The GI50 (M14 melanoma) was 1820 nM, the TGI (M14 melanoma) was 3570 nM and the GI50 (NCI-H23 lung) was under 10 nM. The TGI (NCI-H23 lung) was 1500 nM, the GI50 (SN12C renal) was 1460 nM and the TGI (SN12C renal) was 2870 nM. The GI50 (K-562 leukemia) was 1710 nM, the TGI (K-562 leukemia) was 4280 nM and the GI50 (SNB-19 CNS) was 1590 nM. The TGI (SNB-19 CNS) was 2990 nM, the GI50 (MDA-MB-435) was 1700 nM and the TGI (MDA-MB-435) was 3190 nM. For the same molecule, the GI50 (SK-OV-3 ovarian) was 1680 nM, the TGI (SK-OV-3 ovarian) was 3170 nM and the GI50 (SNB-75 CNS) was 1090 nM. The TGI (SNB-75 CNS) was 2310 nM.
